# Laboratory results published in publication PMC9636434, “Discovery of small molecule agonists of the Relaxin Family Peptide Receptor 2” (Communications Biology, 2022).
# Several values for one entry are separate records, joined by “and”; a condition that tells them apart may be missing. Equal values may be shown once.
# How the values were obtained:
# human RXFP1 = target: T1, human RXFP1 (Homo sapiens, UniProt Q9HBX9); assay: HTRF cAMP counter-screen in HEK293T cells expressing human RXFP1; format: cell-based; details: for % Eff (cAMP): human RXFP1, experiments (1)-(3)
# T1 construct: FLAG (N); expressed in transfected cells
# T1 sequence (Q9HBX9 1-757): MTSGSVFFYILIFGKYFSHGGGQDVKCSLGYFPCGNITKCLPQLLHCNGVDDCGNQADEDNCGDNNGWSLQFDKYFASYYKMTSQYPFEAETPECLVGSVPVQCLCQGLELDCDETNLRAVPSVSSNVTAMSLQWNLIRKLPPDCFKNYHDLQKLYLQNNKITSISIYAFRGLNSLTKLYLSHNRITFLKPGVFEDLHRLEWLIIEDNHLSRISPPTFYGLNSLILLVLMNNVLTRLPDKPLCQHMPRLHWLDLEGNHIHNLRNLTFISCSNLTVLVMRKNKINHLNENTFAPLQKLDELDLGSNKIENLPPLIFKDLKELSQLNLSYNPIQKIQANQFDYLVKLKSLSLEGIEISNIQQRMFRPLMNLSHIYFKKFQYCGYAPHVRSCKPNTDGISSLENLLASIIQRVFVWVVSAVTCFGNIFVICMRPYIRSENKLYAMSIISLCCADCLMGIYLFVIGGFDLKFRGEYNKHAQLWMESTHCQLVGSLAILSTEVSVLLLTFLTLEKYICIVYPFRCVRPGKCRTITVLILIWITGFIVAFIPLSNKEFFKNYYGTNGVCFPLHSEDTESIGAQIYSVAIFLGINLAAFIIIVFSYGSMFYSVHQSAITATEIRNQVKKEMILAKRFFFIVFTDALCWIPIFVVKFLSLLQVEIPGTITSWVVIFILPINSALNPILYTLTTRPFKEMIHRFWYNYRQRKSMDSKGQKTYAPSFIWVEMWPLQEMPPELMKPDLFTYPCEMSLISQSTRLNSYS
# Method: The HTRF Gs dynamic cAMP assay kit (CisBio, Bedford, MA) was used to measure intracellular cAMP accumulation in HEK293T cells (ATCC, Manassas, VA)[56]. […] The cell stock was verified mycoplasma free and authenticated by ATCC. Transient transfection was accomplished by treating cells in a 6-well plate with a mixture of 2 μg plasmid and 6 μL Lipofectamine 2000 (Invitrogen, Waltham, MA) per manufacturer’s protocol and incubating overnight. For cAMP measurement in 96-well format, HEK293T cells stably transfected with human RXFP2 (HEK-RXFP2), human RXFP1 (HEK-RXFP1), mouse Rxfp1 (HEK-Rxfp1) or transiently transfected with human RXFP1-RXFP2 chimeric receptors were seeded between 7500 and 30,000 cells per well, depending on cell line responsiveness, in serum-free DMEM medium and incubated overnight at 37 °C, 5% CO2. After 18 h, cells were treated with a titration of compound, 2 μM forskolin, or DMSO vehicle. Control wells were also treated with a titration of INSL3 (Phoenix Pharmaceuticals, Burlingame, CA) or human recombinant relaxin 2 (Peprotech, Cranbury, NJ). For the RXFP2 antagonist experiment, cells were co-treated with 0.28 μM compound or 30 nM INSL3 and a titration of the INSL3 B dimer antagonist[38],[39]. For the INSL3 allosteric modulation experiment, cells were co-treated with 0.025, 0.0025, or 0.00025 μM of compound and a titration of INSL3. Cells were incubated for 1 h at 37 °C, 5% CO2, and then kit cAMP-d2 and anti-cAMP antibody were added per manufacturer protocol. Plates were incubated for 1 h at room temperature and the signal was read on a CLARIOstar plate reader (BMG Labtech, Ortenberg, Germany) at 665 and 620 nm emission wavelengths. […]
# receptors. HTRF cAMP counter-screen of RXFP2 agonists in HEK293T cells expressing a human RXFP1 and b mouse RXFP1. Relaxin 2 was used as positive control for RXFP1 receptor activation. Results are expressed as mean ± SEM of 3
# [1] = tested on: female gubernaculum (mouse RXFP2 receptor in vivo); assay: Gubernaculum development in female embryos of treated pregnant mice (histology); details: 30 mg/kg IP to pregnant females, E12.5 to E17.5
# Method: The INSL3 surge that drives gubernaculum development during the transabdominal stage of testicular descent in male mice occurs between embryonic day E14.5 and 17.5[5],[6],[41]. In females, there is no detectable INSL3 expression and therefore the gubernaculum remains underdeveloped as a vestigial structure. […] Therefore, we hypothesized that the small molecule agonists of RXFP2 would show similar effects in female mice. Compound activity was tested by injecting pregnant females with the RXFP2 agonists starting from day E12.5 to E17.5 of embryonic development followed by histological evaluation of the gubernaculum in developing female embryos. […] At E18.5 the processus vaginalis or outpouching of the peritoneum occurs in males at the site of gubernacular caudal connection[43] (Fig. 3a). […] No differences were detected in the position of the ovaries in compound-treated female embryos and controls.
# Fig. 3 RXFP2 agonists are biologically active and selective in vivo. a Diagram of the treatment protocol and representative histological section of the developed male gubernaculum at embryonic day 18.5 (upper left). b Representative histological sections showing a male-like invagination of the female gubernaculum in all compound-treated embryos (blue arrows). Four female embryos were analyzed per group. Scale bar = 100 µm. […]
# FPR1 = FPR1 (Homo sapiens, UniProt P21462); assay: PRESTO-Tango β-arrestin recruitment, FPR1; format: cell-based; details: 10 µM compound; basal level of detection 3-fold RLU
# FPR1, sequence (P21462 whole entry): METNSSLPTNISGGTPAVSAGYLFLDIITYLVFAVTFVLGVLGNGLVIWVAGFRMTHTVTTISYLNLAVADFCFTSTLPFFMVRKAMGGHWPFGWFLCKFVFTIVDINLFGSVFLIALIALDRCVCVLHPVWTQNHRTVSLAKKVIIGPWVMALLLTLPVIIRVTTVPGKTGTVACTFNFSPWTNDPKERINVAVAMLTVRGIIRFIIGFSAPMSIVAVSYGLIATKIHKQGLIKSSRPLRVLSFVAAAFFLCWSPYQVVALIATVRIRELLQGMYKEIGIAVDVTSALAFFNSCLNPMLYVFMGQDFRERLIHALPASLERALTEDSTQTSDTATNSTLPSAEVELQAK
compound,measurement,setting,value
O=C1Nc2ccc(-c3cc(C(F)(F)F)cc(C(F)(F)F)c3)cc2C(=O)N2CCN(C(=O)COc3ccc(OC(F)(F)F)cc3I)C[C@@H]12 [compound 6641],activation of human RXFP1 receptor,human RXFP1; HTRF cAMP,do not activate
same,% Eff (cAMP),human RXFP1; Log [M] -4.60,-1.3757% and -1.734% and -1.01%
same,% Eff (cAMP),human RXFP1; Log [M] -5.60,-1.852% and -1.326% and -2.683%
same,% Eff (cAMP),human RXFP1; Log [M] -6.60,-1.88% and -0.1839% and -0.6843%
same,% Eff (cAMP),human RXFP1; Log [M] -7.60,-1.108% and 0.09011% and -0.3682%
same,gubernaculum phenotype of female embryos at E18.5,[1],male-like invagination of the gubernaculum
same,"β-arrestin recruitment, FPR1 (mean ± SEM)",FPR1,3.11 ± 0.29 fold RLU
